# Measured values from EPA's aquatic toxicity sets.
# Test system: Tetrahymena pyriformis
# Assay: 48 h IGC50 (-log10 mol/L); higher = more toxic
row,SMILES,48 h IGC50 (-log10 mol/L)
1,CCOC(=O)C(Br)C(=O)OCC,5.21
2,CCCC/C=C/CO,3.04
3,CCOC(=O)c1ccc(Br)cc1,4.33
4,CC(C)CC(=O)O,2.66
5,O=Cc1cc(Br)c(O)c(Br)c1,3.89
6,O=[N+]([O-])c1ccc(Cl)nc1,3.8
7,Sc1ccccc1,4.66
8,CC(C)(C)OC(=O)CCl,3.85
9,CCCNC(N)=S,2.31
10,CCOC(=O)Cc1ccc(O)c(OC)c1,2.77
11,O=[N+]([O-])c1cc([N+](=O)[O-])c(F)cc1F,5.08
12,O=[N+]([O-])c1ccc(Br)nc1,4.07
13,CCCCC(=O)OCC,2.64
14,N#CCCCCBr,2.79
15,COC(=O)c1ccc(C(=O)OC)c([N+](=O)[O-])c1,3.43
16,CCCCCCCCCO,3.85
17,C=COC(=O)c1ccc(C(C)(C)C)cc1,4.57
18,Cc1cccc(C)c1N=C=S,4.5
19,CCc1cccc(O)c1,3.29
20,O=[N+]([O-])c1cc(Br)cc(F)c1O,4.62
21,O=[N+]([O-])c1ccc(O)c(Cl)c1,4.18
22,C=CC(=O)OCCCCCCC,4.09
23,O=C(CBr)c1ccsc1,5.22
24,C#CC(O)CC (configuration not stated),1.82

row,SMILES,48 h IGC50 (-log10 mol/L)
1,C=C(C)C#N,1.35
2,Cc1ccc(N)c(Cl)c1,3.18
3,N#CCc1ccc(O)cc1,2.62
4,O=[N+]([O-])c1cnc(Cl)c([N+](=O)[O-])c1,5.64
5,CC(C)CC(=O)OCCc1ccccc1,4.1
6,Cc1cccc(N)c1C,2.57
7,CCCCC/C=C/CO,3.37
8,NCc1ccccc1,2.76
9,CC(C)(Br)C(=O)C(C)(C)Br,3.51
10,ClCCCc1ccccc1,3.5
11,N#Cc1cccs1,2.24
12,C/C(=N\O)C(=O)c1ccccc1,2.96
13,COc1cc(C=O)cc(OC)c1O,3.17
14,CC1CCCCC1=O (configuration not stated),2.19
15,O=[N+]([O-])c1cccc2ncccc12,3.39
16,CCCCC(Br)CBr (configuration not stated),4.15
17,O=Cc1ccoc1,3
18,CCC#CCC(C)O (configuration not stated),2.38
19,CC(=O)NN,1.62
20,CC(=S)Nc1ccccc1,2.99
21,N#Cc1cccc(C=O)c1,2.98
22,OCCCCO,0.764
23,CCC(=O)c1ccco1,2.23
24,O=C(O)CCCCCBr,3.03

row,SMILES,48 h IGC50 (-log10 mol/L)
1,NC(=O)c1ccc([N+](=O)[O-])cc1,3.18
2,CCC(=O)c1ccc(O)cc1,3.12
3,CCCCOC(=O)c1ccc(O)cc1,4.33
4,CCCCCc1cccs1,4.2
5,COC(=O)c1ccccc1,3.23
6,N#CCc1ccc(N)cc1,2.24
7,COc1cccc(Cl)c1,3.29
8,O=C(O)CCCCCl,2.71
9,Cc1ccc(Cl)c(C=O)c1F,3.74
10,S=C=Nc1ccc2c(c1)CCC2,5.48
11,O=Cc1c(O)cc(O)cc1O,3.13
12,O=[N+]([O-])c1cccc(-c2ccccc2)c1,4.57
13,O=C(O)c1ccccc1Cl,2.55
14,Cc1cc([N+](=O)[O-])ccc1Br,4.16
15,C=CCSc1ccccc1,3.69
16,NC(=O)c1ccccc1[N+](=O)[O-],2.28
17,CCCCCCCC#N,3.28
18,c1cnc2ccc3ncccc3c2c1,4.14
19,C=CCOC(=O)C=CC,2.52
20,C=CC(=O)OCc1ccccc1,4.35
21,O=Cc1cccc(O)c1O,3.11
22,CCCC(=O)NN,2.03
23,CC(=O)C(C)Cl (configuration not stated),3.27
24,O=C(c1ccccc1O)c1ccccc1O,4.16

row,SMILES,48 h IGC50 (-log10 mol/L)
1,CCCCC#CC(=O)OCC,4.11
2,COc1cc(C(C)=O)ccc1O,2.88
3,N#Cc1ccc(Cl)c([N+](=O)[O-])c1,4.71
4,CCCc1ccc(O)cc1,3.64
5,CCOC(=O)C#Cc1ccccc1,4.67
6,OCCCCCCc1ccccc1,3.87
7,Cc1c(N)cccc1O,2.45
8,N#Cc1cc([N+](=O)[O-])c(Cl)c([N+](=O)[O-])c1,5.66
9,O=[N+]([O-])c1cc(Br)c(O)c(Br)c1,4.36
10,O=[N+]([O-])c1ccccc1F,3.23
11,Oc1ccccc1Br,3.33
12,CN(C)Cc1ccccc1,3.12
13,CCOS(=O)(=O)OCC,2.3
14,C/C=C/C(C)=O,3.54
15,O=C1CCC(=O)CC1,1.33
16,CC(Br)c1ccccc1 (configuration not stated),2.33
17,COC(=O)c1ccc(C(C)(C)C)cc1,3.92
18,c1cnc2c(c1)ccc1ncccc12,4.07
19,CCNC(C)=O,1.3
20,O=Cc1cccc2ccccc12,3.42
21,CC(C)(C)c1ccc(O)cc1,3.91
22,O=C(CBr)Oc1ccccc1,5.08
23,CC(C)(O)c1ccccc1,2.43
24,O=[N+]([O-])c1ccc(/C=N/O)cc1,3.68

row,SMILES,48 h IGC50 (-log10 mol/L)
1,CCOC(=O)CCCBr,2.97
2,CCCCOc1ccc([N+](=O)[O-])cc1,4.42
3,Cc1cc(O)ccc1[N+](=O)[O-],4.73
4,CCC#CC(C)O (configuration not stated),3.51
5,COc1cc(Cl)cc(Cl)c1,3.93
6,COC(=O)CC#N,1.66
7,CCCCCCOC(C)=O,2.99
8,CCC(C)CC(=O)O (configuration not stated),2.77
9,O=Cc1ccc[nH]1,2.52
10,CC1=CC(=O)c2c(O)cccc2C1=O,5.2
11,CCCC/C=C/C(C)=O,3.74
12,COc1cccc(C#N)c1,3.01
13,CCCCCC(=O)CC(C)=O,3.51
14,CC(CCO)c1ccccc1 (configuration not stated),3.01
15,CSc1ccccc1,3.18
16,CC(C)(C)C(=O)O,2.75
17,O=C1CCO1,2.88
18,CCCOS(=O)OCCC,3.09
19,CCOC(=O)CCCCCBr,3.59
20,COc1ccc(Cl)c(Cl)c1Cl,4.64
21,CCCCOC(=O)CC,3.17
